Drawing on ChEMBL document CHEMBL1134855, “Synthesis and hypoglycemic evaluation of substituted pyrazole-4-carboxylic acids” (2002), this text covers Glyceamia evolution for 18 compounds.

What all share (assay type): functional
The test system of assay [1] is Rattus norvegicus. Put plainly: Evolution of glycemia 2 hr after the last administration for 4 days chronic treatment at the dose of 20 mg/kg in rat.
The subject of assay [2] is Rattus norvegicus. Put plainly: Evolution of glycemia 2 hr after first administration at the dose of 20 mg/kg in rat.
Assay [3] relates to Rattus norvegicus. Put plainly: Evolution of glycemia 2 hr after the last administration for 4 days chronic treatment at the dose of 200 mg/kg in rat.
Assay [4] deals with Rattus norvegicus. Put plainly: Evolution of glycemia 2 hr after first administration at the dose of 200 mg/kg in rat.

Molecules are shown by their SMILES.

For `O=C(O)c1c[nH]nc1O`, the Glyceamia evolution was -9% with Rattus norvegicus [1], -12% in the assay on Rattus norvegicus [2], 2% in the assay on Rattus norvegicus [3] and 7% in the assay on Rattus norvegicus [4].

`CCOC(=O)CCCn1cc(C(=O)O)c(OCc2ccccc2)n1`: the Glyceamia evolution in the assay on Rattus norvegicus [1] is reported as -3%; in the assay with Rattus norvegicus [2], -1%; in the assay on Rattus norvegicus [3], -6%; in the assay with Rattus norvegicus [4], -1%.

For the compound `COc1[nH]ncc1C(=O)O`, the Glyceamia evolution in the assay on Rattus norvegicus [1] is -20%; in the assay with Rattus norvegicus [2], -19%; in the assay on Rattus norvegicus [3] it was -8%; with Rattus norvegicus [4], -4%.

Turning to `CN(C)C(=N)NC(=N)N` [METFORMIN], the Glyceamia evolution in the assay on Rattus norvegicus [3] and in the assay on Rattus norvegicus [4] was -24% in each case.

Regarding `N#Cc1ccccc1-c1ccc(Cn2cc(C(=O)O)c(OCc3ccccc3)n2)cc1`, the Glyceamia evolution in the assay with Rattus norvegicus [1] is on record as -10%; in the assay with Rattus norvegicus [2] it was -5%; in the assay with Rattus norvegicus [3], -3%; in the assay with Rattus norvegicus [4], -4%.

As to `Cn1cc(C(=O)O)c(=O)[nH]1`, the Glyceamia evolution was -12% in the assay with Rattus norvegicus [1], 0% in the assay with Rattus norvegicus [2], -16% in the assay on Rattus norvegicus [3] and -12% in the assay with Rattus norvegicus [4].

`N#Cc1ccccc1-c1ccc(COc2n[nH]cc2C(=O)O)cc1`: the Glyceamia evolution in the assay on Rattus norvegicus [1] is reported as -11%; with Rattus norvegicus [2] it was -7%; with Rattus norvegicus [3] it was -5%; with Rattus norvegicus [4] it was 0%.

For `O=C(O)c1cn(Cc2ccccc2)nc1OCc1ccccc1`, the Glyceamia evolution in the assay on Rattus norvegicus [1] is given as -5%; in the assay on Rattus norvegicus [2], -6%; in the assay on Rattus norvegicus [3] it was -9%; in the assay with Rattus norvegicus [4], -14%.

Consider `COc1nn(C)cc1C(=O)O`, for which the Glyceamia evolution is recorded as -10% in the assay on Rattus norvegicus [1], -7% in the assay with Rattus norvegicus [2], -10% in the assay with Rattus norvegicus [3] and -5% in the assay on Rattus norvegicus [4].

`CCOC(=O)Cn1cc(C(=O)O)c(OCc2ccccc2)n1`: the Glyceamia evolution is reported as -6% in the assay with Rattus norvegicus [1], -8% with Rattus norvegicus [2], -3% with Rattus norvegicus [3] and 0% in the assay on Rattus norvegicus [4].

On to `COc1nn(CC=C(C)C)cc1C(=O)O`, for which the Glyceamia evolution in the assay with Rattus norvegicus [1] was -3%; in the assay with Rattus norvegicus [2], 3%; in the assay on Rattus norvegicus [3], -11%; with Rattus norvegicus [4] it was -8%.

For `O=C(O)c1cn(Cc2nn[nH]n2)nc1OCc1ccccc1`, the Glyceamia evolution with Rattus norvegicus [1] is reported as -7%; in the assay with Rattus norvegicus [2] it was 0%; with Rattus norvegicus [3] it was -7%; with Rattus norvegicus [4] it was -2%.

Regarding `COc1nn(Cc2ccc(-c3ccccc3C#N)cc2)cc1C(=O)O`, the Glyceamia evolution is listed as -10% in the assay with Rattus norvegicus [1], -5% in the assay on Rattus norvegicus [2], -3% in the assay with Rattus norvegicus [3] and 1% in the assay on Rattus norvegicus [4].

On to `C=CCn1cc(C(=O)O)c(OC)n1`, for which the Glyceamia evolution in the assay with Rattus norvegicus [1] was 1%; in the assay on Rattus norvegicus [2], 3%; in the assay on Rattus norvegicus [3], 6%; in the assay with Rattus norvegicus [4] it was 5%.

Regarding `Cn1cc(C(=O)O)c(OCc2ccccc2)n1`, the Glyceamia evolution in the assay with Rattus norvegicus [1] is on record as 2%; in the assay on Rattus norvegicus [2] it was -4%; with Rattus norvegicus [3] it was -4%; with Rattus norvegicus [4] it was -5%.

With `O=C(CCn1cc(C(=O)O)c(OCc2ccccc2)n1)Nc1ccc(Cl)cc1`, the Glyceamia evolution in the assay on Rattus norvegicus [1] is given as -10%; with Rattus norvegicus [2], -16%; in the assay with Rattus norvegicus [3], -19%; in the assay with Rattus norvegicus [4], -19%.

Take `O=C(O)c1c[nH]nc1OCc1ccccc1`: the Glyceamia evolution in the assay on Rattus norvegicus [1] is listed as -24%; with Rattus norvegicus [2] it was 1%; in the assay on Rattus norvegicus [3], -15%; in the assay on Rattus norvegicus [4] it was -1%.

`COC(=O)CCn1cc(C(=O)O)c(OCc2ccccc2)n1`: the Glyceamia evolution in the assay on Rattus norvegicus [1] is recorded as -7%; in the assay with Rattus norvegicus [2] it was -3%; in the assay on Rattus norvegicus [3], -3%; with Rattus norvegicus [4], -13%.
